Laboratory results from US9932354B2, “Imidazo-oxadiazole and imidazo-thiadiazole derivatives” (Ares Trading S.A., priority 2012, dated 2018).

Columns and labels:
[1] = system: Amyloid-β peptide release (Aβ42), HEK cells overexpressing APP (HEK-APP); assay: Amyloid-β peptide release (Aβ42) assay, AlphaLISA on supernatant of HEK-APP cells; assay type: cell-based; details: Homo sapiens, HEK293, 24 h incubation with compound, read-out: Ab42 IC50 Ranges
Experimental: (§1) Amyloid-β Peptide Release (Aβ42 & AβTotal) Assay to Determine IC50 Values.
(§2) Compounds are dissolved in and diluted in 100% DMSO and incubated with HEK-APP cells for 24 h at 37° C. in 5% CO2. The supernatant from HEK-APP cells are mixed with antibodies: for Aβ42 detection: AlphaLISA Amyloid-β 1-42 Kit (Perkin Elmer AL203L) Anti-Amyloid β1-42-specific antibody acceptor beads, biotinylated anti-Amyloid-“β1-42” antibody and streptavidin (SA) donor beads diluted in AlphaLISA buffer (to the instructions of the supplier). For Aβ total detection: Custom Anti-Amyloid-βtotal acceptor beads (6E10 acceptor beads), biotinylated anti-Amyloid “β1-42” antibody (Perkin Elmer AL203L) and streptavidin (SA) donor beads diluted in AlphaLISA buffer (to the instructions of the supplier). After addition of supernatant to the antibody mix, the assay is incubated for 4.5 h. Amyloid-β peptide release (Aβ42 & AβTotal) is measured with a Pherastar FS (BMG) multimode reader using the alphascreen module.

[2] = system: Amyloid-β peptide release (AβTotal), HEK cells overexpressing APP (HEK-APP); assay: Amyloid-β peptide release (AβTotal) assay, AlphaLISA on supernatant of HEK-APP cells; assay type: cell-based; details: ratio Abtot vs Ab42, HEK-APP cells, 24 h
Experimental: as §1, §2

SMILES | IC50 [1] | Abtot/Ab42 selectivity ranges [2]
Cc1ncc2sc(C(=O)NCc3ccccc3-c3ccccc3)nn12 [Example 111, 5-Methyl-imidazo[5,1-b][1,3,4]thiadiazole-2-carboxylic acid (biphenyl-2-ylmethyl)-amide] | 1000 to 2200 nM | d (d: 10 fold > selectivity)
Cc1ncc2sc(-c3nnc(NCc4ccc(F)cc4)o3)nn12 [Example 103, (4-Fluoro-benzyl)-[5-(5-methyl-imidazo[5,1-b][1,3,4]thiadiazol-2-yl)-[1,3,4]oxadiazol-2-yl]-amine] | 500 to 1000 nM | d (d: 10 fold > selectivity)
Cc1ncc2oc(-c3ccc(NC(=O)Cc4cccc(C#N)c4)cc3)nn12 [Example 64, 2-(3-cyanophenyl)-N-(4-(5-methylimidazo[5,1-b][1,3,4]oxadiazol-2-yl)phenyl)acetamide] | 500 to 1000 nM | b (b: 100 fold > selectivity ≥ 50 fold)
Cc1ncc2oc(-c3ccc(NC(=O)Cc4c(F)cc(Cl)cc4F)cc3)nn12 [Example 7, 2-(4-Chloro-2,6-difluoro-phenyl)-N-[4-(5-methyl-imidazo[5,1-b][1,2,4]oxadiazol-2-yl)-phenyl]-acetamide] | 500 to 1000 nM | b (b: 100 fold > selectivity ≥ 50 fold)
Cc1ncc2sc(C(=O)N3CCCCC3c3cccc(C(F)(F)F)c3)nn12 (stereo not drawn) [Example 116, (5-Methyl-imidazo[5,1-b][1,3,4]thiadiazol-2-yl)-[2-(3-trifluoromethyl-phenyl)-piperidin-1-yl]-methanone] | 1000 to 2200 nM | d (d: 10 fold > selectivity)
Cc1ncc2oc(-c3ccc(NC(=O)NCc4ccccc4Cl)cc3)nn12 [Example 54, 1-(2-Chloro-benzyl)-3-[4-(5-methyl-imidazo[5,1-b][1,2,4]oxadiazol-2-yl)-phenyl]-urea] | 1000 to 2200 nM | c (c: 50 fold > selectivity ≥ 10 fold)
COc1cc(NC(=O)Cc2ccc(OC(F)(F)F)cc2)ccc1-c1nn2c(C)ncc2o1 [Example 34, N-(3-methoxy-4-(5-methylimidazo[5,1-b][1,3,4]oxadiazol-2-yl)phenyl)-2-(4-(trifluoromethoxy)phenyl)acetamide] | 500 to 1000 nM | b (b: 100 fold > selectivity ≥ 50 fold)
Cc1ncc2sc(C(=O)NCc3ccccc3OCC(F)(F)F)nn12 [Example 92, 5-Methyl-imidazo[5,1-b][1,3,4]thiadiazole-2-carboxylic acid 2-(2,2,2-trifluoro-ethoxy)-benzylamide] | < 100 nM | d (d: 10 fold > selectivity)
Cc1ncc2oc(-c3ccc(Nc4nc5c(s4)CCCC5c4ccc(F)cc4)cc3)nn12 (stereo not drawn) [Example 27, [4-(4-Fluoro-phenyl)-4,5,6,7-tetrahydro-benzothiazol-2-yl]-[4-(5-methyl-imidazo[5,1-b][1,2,4]oxadiazol-2-yl)-phenyl]-amine] | 1000 to 2200 nM | d (d: 10 fold > selectivity)
CCOc1ccc(CC(=O)Nc2ccc(-c3nn4c(C)ncc4o3)cc2)cc1 [Example 8, 2-(4-Ethoxy-phenyl)-N-[4-(5-methyl-imidazo[5,1-b][1,2,4]oxadiazol-2-yl)-phenyl]-acetamide] | 1000 to 2200 nM | c (c: 50 fold > selectivity ≥ 10 fold)
Cc1ncc2oc(-c3ccc(NC(=O)C4(c5ccc(Cl)cc5)CCC4)cn3)nn12 [Example 84, 1-(4-Chloro-phenyl)-cyclobutanecarboxylic acid [6-(5-methyl-imidazo[5,1-b][1,2,4]oxadiazol-2-yl)-pyridin-3-yl]-amide] | 500 to 1000 nM | c (c: 50 fold > selectivity ≥ 10 fold)
Cc1ncc2oc(-c3ccc(NC(=O)Cc4ccc(Cl)c(Cl)c4)cn3)nn12 [Example 12, 2-(3,4-Dichloro-phenyl)-N-[6-(5-methyl-imidazo[5,1-b][1,2,4]oxadiazol-2-yl)-pyridin-3-yl]-acetamide] | 500 to 1000 nM | c (c: 50 fold > selectivity ≥ 10 fold)
Cc1ncc2sc(-c3nnc(NCc4ccccc4F)o3)nn12 [Example 104, (2-Fluoro-benzyl)-[5-(5-methyl-imidazo[5,1-b][1,3,4]thiadiazol-2-yl)-[1,3,4]oxadiazol-2-yl]-amine] | 1000 to 2200 nM | d (d: 10 fold > selectivity)
CCOc1ccc(CC(=O)Nc2ccc(-c3nn4c(C)ncc4o3)c(OC)c2)cc1 [Example 35, 2-(4-ethoxyphenyl)-N-(3-methoxy-4-(5-methylimidazo [5,1-b][1,3,4]oxadiazol-2-yl)phenyl)acetamide] | 500 to 1000 nM | b (b: 100 fold > selectivity ≥ 50 fold)
Cc1cccc(CC(=O)Nc2ccc(-c3nn4c(C)ncc4o3)cc2)c1 [Example 2, N-[4-(5-Methyl-imidazo[5,1-b][1,2,4]oxadiazol-2-yl)-phenyl]-2-m-tolyl-acetamide] | 1000 to 2200 nM | c (c: 50 fold > selectivity ≥ 10 fold)
Cc1ncc2oc(-c3ccc(NC(=O)Cc4ccc(-c5ccccc5)cc4)cc3)nn12 [Example 56, 2-Biphenyl-4-yl-N-[4-(5-methyl-imidazo[5,1-b][1,2,4]oxadiazol-2-yl)-phenyl]-acetamide] | 100 to 500 nM | a (a: selectivity ≥ 100 fold)
Cc1ccc(C)c(CC(=O)Nc2ccc(-c3nn4c(C)ncc4o3)cc2C)c1 [Example 38] | 100 to 500 nM | a (a: selectivity ≥ 100 fold)
Cc1ccc(C2CCCN2C(=O)c2nn3c(C)ncc3s2)cc1 (stereo not drawn) [Example 119, (5-Methyl-imidazo[5,1-b][1,3,4]thiadiazol-2-yl)-(2-p-tolyl-pyrrolidin-1-yl)-methanone] | 100 to 500 nM | d (d: 10 fold > selectivity)
COc1cc(NC(=O)Cc2cc(C)ccc2C)ccc1-c1nn2c(C)ncc2s1 [Example 126, 2-(2,5-Dimethyl-phenyl)-N-[3-methoxy-4-(5-methyl-imidazo[5,1-b][1,3,4]thiadiazol-2-yl)-phenyl]-acetamide] | 500 to 1000 nM | d (d: 10 fold > selectivity)
Cc1ccc(C)c(CC(=O)Nc2ccc(-c3nn4c(C)ncc4o3)cc2)c1 [Example 50] | 500 to 1000 nM | c (c: 50 fold > selectivity ≥ 10 fold)
Cc1ncc2oc(-c3ccc(NC(=O)C(C)c4cccc(C(F)(F)F)c4)cc3)nn12 (stereo not drawn) [Example 55, N-(4-(5-methylimidazo[5,1-b][1,3,4]oxadiazol-2-yl)phenyl)-2-(3-(trifluoromethyl)phenyl)propanamide] | 1000 to 2200 nM | c (c: 50 fold > selectivity ≥ 10 fold)
Cc1ncc2oc(-c3ccc(NC(=O)Cc4cccc(OCc5ccccc5)c4)cc3)nn12 [Example 70, 2-(3-(benzyloxy)phenyl)-N-(4-(5-methylimidazo[5,1-b][1,3,4]oxadiazol-2-yl)phenyl)acetamide] | 1000 to 2200 nM | c (c: 50 fold > selectivity ≥ 10 fold)
Cc1ccccc1C1CCCN1C(=O)c1nn2c(C)ncc2s1 (stereo not drawn) [Example 121, (5-Methyl-imidazo[5,1-b][1,3,4]thiadiazol-2-yl)-(2-o-tolyl-pyrrolidin-1-yl)-methanone] | 500 to 1000 nM | d (d: 10 fold > selectivity)
Cc1ncc2oc(-c3ccc(Nc4nccc(NCc5ccccc5C(F)(F)F)n4)cc3)nn12 [Example 74, N2-(4-(5-methylimidazo[5,1-b][1,3,4]oxadiazol-2-yl)phenyl)-N4-(2-(trifluoromethyl)benzyl)pyrimidine-2,4-diamine] | 1000 to 2200 nM | d (d: 10 fold > selectivity)
Cc1nc(C)n2nc(-c3ccc(C(=O)NCc4ccccc4C(F)(F)F)cc3)oc12 [Example 23, 4-(5,7-Dimethyl-imidazo[5,1-b][1,2,4]oxadiazol-2-yl)-N-(2-trifluoromethyl-benzyl)-benzamide] | 1000 to 2200 nM | c (c: 50 fold > selectivity ≥ 10 fold)
Cc1ncc2sc(C(=O)N3CCCC3c3ccccc3Cl)nn12 (stereo not drawn) [Example 122, [2-(2-Chloro-phenyl)-pyrrolidin-1-yl]-(5-methyl-imidazo[5,1-b][1,3,4]thiadiazol-2-yl)-methanone] | 1000 to 2200 nM | d (d: 10 fold > selectivity)
Cc1ncc2oc(-c3ccc(Nc4ccn(Cc5ccc(Cl)cc5)n4)cc3)nn12 [Example 29, [1-(4-Chloro-benzyl)-1H-pyrazol-3-yl]-[4-(5-methyl-imidazo[5,1-b][1,2,4]oxadiazol-2-yl)-phenyl]-amine] | 1000 to 2200 nM | d (d: 10 fold > selectivity)
Cc1ncc2oc(-c3ccc(NC(=O)Cc4cccc(C(F)(F)F)c4)cn3)nn12 [Example 14, N-[6-(5-Methyl-imidazo[5,1-b][1,2,4]oxadiazol-2-yl)-pyridin-3-yl]-2-(3-trifluoromethyl-phenyl)-acetamide] | 1000 to 2200 nM | c (c: 50 fold > selectivity ≥ 10 fold)
Cc1ncc2sc(C(=O)N3CCCC3c3ccc(Cl)cc3)nn12 (stereo not drawn) [Example 118, [2-(4-Chloro-phenyl)-pyrrolidin-1-yl]-(5-methyl-imidazo[5,1-b][1,3,4]thiadiazol-2-yl)-methanone] | 100 to 500 nM | 
